Reference: PubChem BioAssay AID1626 (SRMLSC, 2009)

Tested on: M. tuberculosis H37Rv growth inhibition
Experiment: M. tuberculosis H37Rv growth inhibitors, H37Rv strain (AID 1626)
Conditions: for IC90: measured here: IC90 against H37Rv; for CC50: measured here: Vero cell cytotoxicity

Compound	IC50 [µM]	IC90 [µM]	CC50 [µM]
COC(=O)COc1ccc2c(=O)c(Oc3ccccc3)c(C)oc2c1	2.13	10	
Cc1cc(-c2ccc(/C=N/n3cnnc3)o2)ccc1Cl		> 100	
COc1ccc(C(=O)CCNc2ccc(C)c(Cl)c2)cc1	58.9	> 100	
O=C(Nc1nnc(SCc2ccc(F)cc2)s1)c1ccccn1	0.342	5.05	4.74
Clc1cccc2c1Sc1ccccc1CC2N1CCNCC1 (stereo not drawn)	3.12	6.58	11.2
COc1cc(CNC(C)c2ccccc2)cc(Cl)c1OCC(=O)Nc1ccccc1 (stereo not drawn)	3.1	3.39	> 40
CCCCCC(=O)Nc1ccc2ccccc2c1	< 0.195	> 100	
O=C1C=CC(O)(c2cc(=O)c3c(O)cc(O)cc3o2)C=C1	3.87	6.68	6.81
FC(F)(F)c1nnc(-c2ccccc2)nc1Sc1ccccc1	21.9	25.3	> 40
CCOc1ccc(CN2CCN(CC(O)Cn3c4ccccc4c4ccccc43)CC2)cc1 (stereo not drawn)	4.35	6.2	13.6
Nc1cnc(-c2ccccc2)nc1Cl	7.27	> 100	
C=CCNc1cc(C(F)(F)F)nc(-c2ccccn2)n1	4.87	16.3	
OC(COCC(F)(F)C(F)(F)C(F)(F)C(F)F)Cn1c2ccc(Cl)cc2c2cc(Cl)ccc21 (stereo not drawn)	7.11	9.92	13.3
N#C/C(=C(/O)COC(=O)CCC1CCCCC1)c1nc2ccccc2[nH]1	20.2	25.1	> 40
Cc1ccc(Nc2cc(C)nc(NCc3ccccc3)n2)cc1	6.69	9.45	> 40
CCOC(=O)c1cccc(N/C=C/C(=O)c2ccc(OC)c(OC)c2)c1	24	> 100	
COc1ccc(NC(=O)NC(C)C2CC3CCC2C3)cc1 (stereo not drawn)	7.4	> 100	> 40
COc1cc(OC)c2c(-c3ccccc3)cc(=O)oc2c1C(CCN1CCCC(C)C1)c1ccc(N(C)C)cc1 (stereo not drawn)	4.18	5.41	17.1
COC(=O)CCSc1cc(NCCOC(C)=O)c([N+](=O)[O-])c2nonc12	16.1	40.3	
N#C/C(=C/c1ccc(-c2ccc(Br)cc2)o1)C(=O)NC1CCCCC1		> 100	> 40
COC(=O)c1cc(Sc2cccc(Cl)c2Cl)ccn1	11.4	17	

Compound	IC50 [µM]	IC90 [µM]	CC50 [µM]
Nc1scc(-c2ccncc2)c1Cl	5.32	> 100	> 40
CNC(=O)C(=O)Nc1nc(C23CC4CC(CC(C4)C2)C3)cs1	62.7	> 100	
C(=C\c1nccc2c1[nH]c1ccccc12)/c1ccccc1	8.41	11.3	29.4
Fc1cccc(-c2cc3nc(-c4ccccc4)cc(N4CCC5(CC4)OCCO5)n3n2)c1		> 100	
CN1CCN(c2ccccc2NC(=O)c2ccc(-c3ccc(Cl)cc3Cl)o2)CC1	65.2	82.8	> 40
O=C(OCC(=O)N1CCN(C(=O)c2ccco2)CC1)c1sc2ccccc2c1Cl		> 100	
CCOc1ccc(-c2nnc(N)o2)cc1	57.8	> 100	
C(=C\c1nc(N2CCCCCC2)c2ccccc2n1)/c1ccccc1	8.43	11.1	37.5
CCOC(=O)CSc1nc(-c2ccccc2)ns1	5.59	8.55	
COc1cc(N=C2C(=O)N3c4c(cccc42)C(C)=CC3(C)C)cc(OC)c1	46.9	> 100	
CCOC(=O)c1ccc(NC(=O)CSc2nnc(COc3ccccc3OC)n2C)cc1		> 100	
O=C1c2ccccc2-n2c1nc1ccccc1c2=O	< 0.195	0.601	> 40
COc1cc(OC)c2c(-c3ccccc3)cc(=O)oc2c1C(CCN1CCCCC1)c1ccc2c(c1)OCO2 (stereo not drawn)	9.18	12.8	13.6
Cc1ccc(-c2c[n+](CC(=O)Nc3nc(-c4ccc(F)cc4)cs3)c3n2CCC3)cc1	4.87	7.09	
CCOC(=O)c1ccc(NC(=O)/C=C/c2cccs2)cc1	71.3	> 100	
CCOC(=O)CSc1nc(N)c(C#N)c(CC(C)C)c1C#N	1.44	8.77	
Cc1coc2c1C(=O)C(=O)c1c-2ccc2c1CCCC2(C)C	3.23	4.85	
O=C(CSc1nc2ccc(Nc3nc(N4CCOCC4)nc(N4CCOCC4)n3)cc2s1)NCc1ccco1	36.5	> 100	> 40
Cc1cccc(-n2cc(CN(C)Cc3nccn3C)c(-c3cccc(F)c3)n2)c1	7.43	12.1	> 40
CCCCn1c(O)c(C(C)=Nc2ccc(OCC)cc2)c(=O)[nH]c1=O	5.45	> 100	> 40
Cc1ccc(CNC(=O)c2ccc([N+](=O)[O-])o2)cc1	< 0.391	2.89	8.28

Compound	IC50 [µM]	IC90 [µM]	CC50 [µM]
CC(=O)c1ccc(NC(=O)CSCC(=O)Nc2ccc3ccccc3c2)cc1	51	> 100	
CCOC(=O)c1ccc(N=Cc2nc3ccccc3n2C)cc1	12.7	> 100	
CCc1cc2cc(C(=O)Nc3ccc(F)cc3)sc2s1	0.512	0.79	
CC1Cc2ccccc2N1C(=O)COC(=O)c1ccc(Cl)nc1 (stereo not drawn)	10.7	> 100	
Cc1c([N+](=O)[O-])cc(C(=O)NCc2ccc(F)cc2)cc1[N+](=O)[O-]	< 0.195	> 100	
CCOC(=O)CSc1ncnc2c1cnn2-c1ccccc1	1.37	14.6	
Cc1nc(Nc2ccc(Cl)c(Cl)c2)sc1C(=O)Nc1ccccc1	14.4	38	20.9
Cc1cc(N2C3CCC2CC(O)(c2ccc(F)cc2)C3)nc(-c2ccccc2)n1 (stereo not drawn)	31.6	> 100	> 40
COc1cc(CNc2ccc3c(c2)CCC3)cc(OC)c1O	46.4	> 100	
COc1cc(/C=C(/C#N)C(=O)Nc2ccc(C)cc2)ccc1Oc1nc(Cl)ncc1F			> 40
Cc1ccc2c(c1)Cc1nc3ccccc3nc1-2	83.5	> 100	> 40
Cc1ccc(C)c(N=Nc2ccc(O)c3ncccc23)c1	68.5	> 100	1.85
COc1ccccc1/C=C/C(=O)c1ccc(NC(C)=O)cc1			22.8
Cc1ccc(-n2cc(CN(C)Cc3nccn3C)c(-c3cccc(C)c3)n2)cc1	9.75	15.9	> 40
O=c1[nH]c(-c2ccccn2)nc(C(F)(F)F)c1Br	0.487	1.02	33.4
COc1ccccc1N1CCN(Cc2nc(N)nc(Nc3ccc(C)c(Cl)c3)n2)CC1	8.35	18.7	> 40
COc1ccc(N=Cc2cc(Cl)ccc2O)cc1Cl	7.49	> 100	
CC(=O)CC1(OC(C)=O)C(=O)N(C)c2ccccc21 (stereo not drawn)	5.34	5.89	24.3
Cc1ccccc1-c1cc(C(=O)Nc2nc3c(s2)CCCC3)c2ccccc2n1	4.41	12.7	> 40
Cc1cc(NC(=O)c2cc(-c3ccncc3)nc3c(C)cccc23)no1	48.1	74.3	12.9
COc1ccc(COCC(O)CN2CCC(CN3C(=O)c4cccc5cccc(c45)C3=O)CC2)cc1OC (stereo not drawn)	12.9	> 100	> 40

Compound	IC50 [µM]	IC90 [µM]	CC50 [µM]
OCCN(/C=N/c1nc(-c2ccc(Br)cc2)cs1)CCO	31.4	> 100	
Cc1ccccc1C(=O)N1CCc2cc(-c3nc(NC(=O)Cc4ccc5c(c4)OCO5)sc3C)ccc21			> 40
O=C1C=C(c2cccs2)C[C@H](c2ccccc2)[C@H]1n1nnc([N+](=O)[O-])n1	3.8	7.5	< 0.078
CCN(Cc1ccccc1)c1ccc(/C=N/N=C(N)N)cc1	5.5	6.21	8.71
CCCn1c(NC(=O)c2ccco2)nc2ccccc21	5.87	18.6	> 40
Cc1ccc(-n2cc(CN3CCC(CO)(Cc4cccc(C(F)(F)F)c4)CC3)cn2)cc1	4.31	7.09	23.7
CCOC(=O)C(C)Sc1nnc(NC(=O)c2ccc(C)c([N+](=O)[O-])c2)s1 (stereo not drawn)	6.69	12.1	
COC(=O)CSc1nc2ccccc2nc1SCC(=O)OC	4.87	12.5	
Cc1cccc(Nc2nnc(SCC(=O)Nc3cccnc3Cl)s2)c1	2.34	8.03	
O=C(O)c1[nH]c(=O)[nH]c(=O)c1F	6.62	18.4	> 40
CCCCCCCCSc1nnc(CSc2nc3nc(C)cc(C)n3n2)o1	0.635	24.6	
CCN1CCN(c2cc3c(cc2F)c(=O)c(C(=O)O)cn3C2CC2)CC1	< 0.391	< 0.391	
COc1cc2c(cc1NC(=O)CSc1nc3ccccc3[nH]1)oc1ccccc12	10.4	> 100	> 40
CCCOC(=O)CSc1nc(N)c(C#N)c(-c2ccco2)c1C#N	< 0.195	0.907	
N=c1c2c(-c3ccccc3)c(-c3ccccc3)n(Cc3ccco3)c2ncn1Cc1ccccc1	2.75	3.17	6.49
CCCCCCCCCn1c2c(c(=N)c3c1CCC3)CCCC2	4.41	5.68	7.25
COc1ccc(Nc2nc(C)c3ccccc3n2)cc1			> 40
COc1ccc(C(=O)Oc2cccc3cccnc23)cc1[N+](=O)[O-]	4.12	4.93	39
Cc1csc(NC(=O)CSc2ccc(-c3ccccn3)nn2)n1	5.48	6.15	> 40
COc1ccccc1-c1nc(-c2ccccc2)nc(N2CCN(C)CC2)c1C#N	16.5	22	> 40
c1ccc(CNc2nc(CN3CCOCC3)nc3scc(-c4ccccc4)c23)cc1	13	21.9	
